From patent EP3421457B1, “PYRIMIDINE FGFR4 INHIBITORS” (priority 2013, dated 2015)
pIC50: −log10 of the molar value. Counter-ions that a name gives are not always drawn. Like-named read-outs stand apart in the source and are kept apart here.

Target: T1, FGFR4 (Homo sapiens, UniProt P22455)
T1 construct: purchased Invitrogen
Experiment: IC50 Profiling of Kinase Activity Inhibition (Kinase HotSpot assay)
Format: biochemical

T1 sequence (P22455 22-802): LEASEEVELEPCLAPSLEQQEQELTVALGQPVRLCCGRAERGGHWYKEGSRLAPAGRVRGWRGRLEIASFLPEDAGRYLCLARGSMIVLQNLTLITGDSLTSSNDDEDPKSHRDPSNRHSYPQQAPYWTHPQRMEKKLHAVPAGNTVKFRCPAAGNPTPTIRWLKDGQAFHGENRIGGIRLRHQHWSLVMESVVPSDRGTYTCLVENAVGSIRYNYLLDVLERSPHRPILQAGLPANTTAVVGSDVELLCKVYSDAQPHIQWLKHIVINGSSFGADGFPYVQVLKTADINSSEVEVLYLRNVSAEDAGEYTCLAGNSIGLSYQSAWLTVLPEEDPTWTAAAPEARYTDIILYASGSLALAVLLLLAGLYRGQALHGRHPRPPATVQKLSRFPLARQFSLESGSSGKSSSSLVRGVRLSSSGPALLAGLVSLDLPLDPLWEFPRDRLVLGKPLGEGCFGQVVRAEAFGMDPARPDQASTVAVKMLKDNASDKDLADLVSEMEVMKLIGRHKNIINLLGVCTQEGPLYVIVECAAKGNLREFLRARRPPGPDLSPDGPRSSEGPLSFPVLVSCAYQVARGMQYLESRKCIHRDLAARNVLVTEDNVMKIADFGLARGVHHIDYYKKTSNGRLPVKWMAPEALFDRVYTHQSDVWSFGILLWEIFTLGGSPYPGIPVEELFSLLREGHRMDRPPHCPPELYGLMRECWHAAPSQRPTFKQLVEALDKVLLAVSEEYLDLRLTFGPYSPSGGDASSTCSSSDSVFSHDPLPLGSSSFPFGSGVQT

Compound	pIC50 (Table 1)	pIC50
C=CC(=O)Nc1cc(C2CCN(C)CC2)ccc1Nc1cc(N(C)C(=O)Nc2c(Cl)c(OC)cc(OC)c2Cl)ncn1 [Compound 112, N-(2-(6-(3-(2,6-dichloro-3,5-dimethoxyphenyl)-1-methylureido)pyrimidin-4-ylamino)-5-(1-methylpiperidin-4-yl)phenyl)acrylamide]	> 9.00	–
C#CC(=O)Nc1ccccc1Nc1cc(N(C)C(=O)Nc2c(Cl)c(OC)cc(OC)c2Cl)ncn1 [Compound 114, N-(2-(6-(3-(2,6-dichloro-3,5-dimethoxyphenyl)-1-methylureido)pyrimidin-4-ylamino)phenyl)propiolamide]	> 9.00	–
C=CC(=O)Nc1ccccc1Nc1cc(N(CCOC)C(=O)Nc2c(Cl)c(OC)cc(OC)c2Cl)ncn1 [Compound 116, N-(2-{6-[3-(2,6-Dichloro-3,5-dimethoxy-phenyl)-1-(2-methoxy-ethyl)-ureido]-pyrimidin-4-ylamino}-phenyl)-acrylamide]	8.40	–
C=CC(=O)Nc1ccccc1Nc1cc(N(CCCN2CCN(C)CC2)C(=O)Nc2c(Cl)c(OC)cc(OC)c2Cl)ncn1 [Compound 121, N-[2-(6-{3-(2,6-Dichloro-3,5-dimethoxy-phenyl)-1-[3-(4-methyl-piperazin-1-yl)-propyl]-ureido}-pyrimidin-4-ylamino)-phenyl]-acrylamide]	> 9.00	–
C=CC(=O)Nc1cc(N2C[C@@H](C)N[C@@H](C)C2)ccc1Nc1cc(N(C)C(=O)Nc2c(Cl)c(OC)cc(OC)c2Cl)ncn1 [Compound 124, N-[2-{6-[3-(2,6-Dichloro-3,5-dimethoxy-phenyl)-1-methyl-ureido]-pyrimidin-4-ylamino}-5-(3,5-dimethyl-piperazin-1-yl)-phenyl]-acrylamide]	> 9.00	–
C=CC(=O)Nc1cc(N2CCN(S(C)(=O)=O)CC2)ccc1Nc1cc(N(C)C(=O)Nc2c(Cl)c(OC)cc(OC)c2Cl)ncn1 [Compound 125, N-[2-{6-[3-(2,6-Dichloro-3,5-dimethoxy-phenyl)-1-methyl-ureido]-pyrimidin-4-ylamino}-5-(4-methanesulfonyl-piperazin-1-yl)-phenyl]-acrylamide]	> 9.00	–
C=CC(=O)Nc1ccccc1Nc1cc(N(Cc2ccccc2)C(=O)Nc2c(Cl)c(OC)cc(OC)c2Cl)ncn1 [Compound 130, N-(2-{6-[1-Benzyl-3-(2,6-dichloro-3,5-dimethoxy-phenyl)-ureido]-pyrimidin-4-ylamino}-phenyl)-acrylamide]	8.70	–
C=CC(=O)Nc1ccccc1Nc1cc(N(Cc2ccccn2)C(=O)Nc2c(Cl)c(OC)cc(OC)c2Cl)ncn1 [Compound 131, N-(2-{6-[3-(2,6-Dichloro-3,5-dimethoxy-phenyl)-1-pyridin-2-ylmethyl-ureido]-pyrimidin-4-ylamino}-phenyl)-acrylamide]	> 9.00	–
C=CC(=O)Nc1ccccc1Nc1cc(N(Cc2ccncc2)C(=O)Nc2c(Cl)c(OC)cc(OC)c2Cl)ncn1 [Compound 132]	> 9.00	–
C=CC(=O)Nc1cc(N2CCN(CC)CC2)ccc1Nc1cc(N(C)C(=O)Nc2c(Cl)cccc2Cl)ncn1 [Compound 140, N-(2-((6-(3-(2,6-dichlorophenyl)-1-methylureido)pyrimidin-4-yl)amino)-5-(4-ethylpiperazin-1-yl)phenyl)acrylamide]	> 9.00	–
C=CC(=O)Nc1cc(N2CCN(CC)CC2)ccc1Nc1cc(N(C)C(=O)Nc2cc(OC)cc(OC)c2Cl)ncn1 [Compound 141, N-(2-((6-(3-(2-chloro-3,5-dimethoxyphenyl)-1-methylureido)pyrimidin-4-yl)amino)-5-(4-ethylpiperazin-1-yl)phenyl)acrylamide]	8.70	–
C=CC(=O)Nc1cc(N2CCN(CC)CC2)ccc1Nc1cc(N(C)C(=O)Nc2c(F)c(OC)cc(OC)c2F)ncn1 [Compound 143]	8.00	–
C=CC(=O)Nc1cc(N2CCN(CC)CC2)ccc1Nc1cc(N(C)C(=O)Nc2c(F)c(OC)cc(OC)c2Cl)ncn1 [Compound 144, N-(2-((6-(3-(2-chloro-6-fluoro-3,5-dimethoxyphenyl)-1-methylureido)pyrimidin-4-yl)amino)-5-(4-ethylpiperazin-1-yl)phenyl)acrylamide]	> 9.00	–
C=CC(=O)Nc1cc(COC)ccc1Nc1cc(N(C)C(=O)Nc2c(Cl)c(OC)cc(OC)c2Cl)ncn1 [Compound 147, N-(2-((6-(3-(2,6-dichloro-3,5-dimethoxyphenyl)-l-methylureido)pyrimidin-4-yl)amino)-5-(methoxymethyl)phenyl)acrylamide]	> 9.00	–
C=CC(=O)Nc1cc(C(=O)N(C)C)ccc1Nc1cc(N(C)C(=O)Nc2c(Cl)c(OC)cc(OC)c2Cl)ncn1 [Compound 149, 3-acrylamido-4-((6-(3-(2,6-dichloro-3,5-dimethoxyphenyl)-1-methylureido)pyrimidin-4-yl)amino)-N,N-dimethylbenzamide]	> 9.00	–
C=CC(=O)Nc1cc(C(=O)N2CCN(CC)CC2)ccc1Nc1cc(N(C)C(=O)Nc2c(Cl)c(OC)cc(OC)c2Cl)ncn1 [Compound 150, N-(2-((6-(3-(2,6-dichloro-3,5-dimethoxyphenyl)-1-methylureido)pyrimidin-4-yl)amino)-5-(4-ethylpiperazine-1-carbonyl)phenyl)acrylamide]	> 9.00	–
C=CC(=O)N(C)c1cc(N2CCN(CC)CC2)ccc1Nc1cc(N(C)C(=O)Nc2c(Cl)c(OC)cc(OC)c2Cl)ncn1 [Compound 152]	7.85	–

Compound	pIC50 (Table 1)	pIC50
C=CC(=O)Nc1cc(N2CCN(C(C)=O)CC2)ccc1Nc1cc(N(C)C(=O)Nc2c(Cl)c(OC)cc(OC)c2Cl)ncn1 [Compound 154, N-(5-(4-acetylpiperazin-1-yl)-2-((6-(3-(2,6-dichloro-3,5-dimethoxyphenyl)-1-methylureido)pyrimidin-4-yl)amino)phenyl)acrylamide]	–	> 9.00
C=CC(=O)Nc1cc(C(C)OC)ccc1Nc1cc(N(C)C(=O)Nc2c(Cl)c(OC)cc(OC)c2Cl)ncn1 (stereo not shown) [Compound 155, N-(2-((6-(3-(2,6-dichloro-3,5-dimethoxyphenyl)-1-methylureido)pyrimidin-4-yl)amino)-5-(1-methoxyethyl)phenyl)acrylamide]	> 9.00	–
C=CC(=O)Nc1cc(C(C)O)ccc1Nc1cc(N(C)C(=O)Nc2c(Cl)c(OC)cc(OC)c2Cl)ncn1 (stereo not shown) [Compound 156, N-(2-((6-(3-(2,6-dichloro-3,5-dimethoxyphenyl)-1-methylureido)pyrimidin-4-yl)amino)-5-(1-hydroxyethyl)phenyl) acrylamide]	> 9.00	–
C=CC(=O)Nc1cc(N(C)CCO)ccc1Nc1cc(N(C)C(=O)Nc2c(Cl)c(OC)cc(OC)c2Cl)ncn1 [Compound 158, N-(2-((6-(3-(2,6-dichloro-3,5-dimethoxyphenyl)-1-methylureido)pyrimidin-4-yl)amino)-5-((2-hydroxyethyl)(methyl)amino)phenyl)acrylamide]	> 9.00	–
C=CC(=O)Nc1cc(N2CCN(C)CC2)ccc1Nc1cc(N(C)C(=O)Nc2c(Cl)c(OC)cc(OC)c2Cl)ncn1 [Compound 159]	> 9.00	–
C=CC(=O)Nc1cc(N2CCN(CCN)CC2)ccc1Nc1cc(N(C)C(=O)Nc2c(Cl)c(OC)cc(OC)c2Cl)ncn1 [Compound 161, N-(5-(4-(2-aminoethyl)piperazin-1-yl)-2-((6-(3-(2,6-dichloro-3,5-dimethoxyphenyl)-1-methylureido)pyrimidin-4-yl)amino)phenyl)acrylamide 2 TFA salt]	> 9.00	–
C=CC(=O)Nc1cc(OCCO)ccc1Nc1cc(N(C)C(=O)Nc2c(Cl)c(OC)cc(OC)c2Cl)ncn1 [Compound 164, 2,2,2-trifluoroacetate]	> 9.00	–
C=CC(=O)Nc1cccc(C)c1Nc1cc(N(C)C(=O)Nc2c(Cl)c(OC)cc(OC)c2Cl)ncn1 [Compound 165, N-(2-((6-(3-(2,6-dichloro-3,5-dimethoxyphenyl)-1-methylureido)pyrimidin-4-yl)amino)-3-methylphenyl)acrylamide]	> 9.00	–
C=CC(=O)Nc1cccc(OC)c1Nc1cc(N(C)C(=O)Nc2c(Cl)c(OC)cc(OC)c2Cl)ncn1 [Compound 166, N-(2-((6-(3-(2,6-dichloro-3,5-dimethoxyphenyl)-1-methylureido)pyrimidin-4-yl)amino)-3-methoxyphenyl)acrylamide]	> 9.00	–
C=CC(=O)Nc1cccc(Cl)c1Nc1cc(N(C)C(=O)Nc2c(Cl)c(OC)cc(OC)c2Cl)ncn1 [Compound 167, N-(3-chloro-2-((6-(3-(2,6-dichloro-3,5-dimethoxyphenyl)-1-methylureido)pyrimidin-4-yl)amino)phenyl)acrylamide]	> 9.00	–
C=CC(=O)Nc1cc(N2CCN(CCO)CC2)ccc1Nc1cc(N(C)C(=O)Nc2c(Cl)c(OC)cc(OC)c2Cl)ncn1 [Compound 168, N-(2-((6-(3-(2,6-dichloro-3,5-dimethoxyphenyl)-1-methylureido)pyrimidin-4-yl)amino)-5-(4-(2-hydroxyethyl)piperazin-1-yl)phenyl)acrylamide TFA salt]	> 9.00	–
COc1cc(OC)c(Cl)c(NC(=O)N(C)c2cc(Nc3ccccc3NC(=O)/C=C/Cl)ncn2)c1Cl [Compound 170, (E)-3-chloro-N-(2-((6-(3-(2,6-dichloro-3,5-dimethoxyphenyl)-1-methylureido)pyrimidin-4-yl)amino)phenyl)acrylamide]	8.10	–
COc1cc(OC)c(Cl)c(NC(=O)N(C)c2cc(Nc3ccccc3NC(=O)/C=C\Cl)ncn2)c1Cl [Compound 171, (Z)-3-chloro-N-(2-((6-(3-(2,6-dichloro-3,5-dimethoxyphenyl)-1-methylureido)pyrimidin-4-yl)amino)phenyl)acrylamide]	8.52	–
CCN1CCN(c2ccc(Nc3cc(N(C)C(=O)Nc4c(Cl)c(OC)cc(OC)c4Cl)ncn3)c(NC(=O)/C=C\Cl)c2)CC1 [Compound 181, (Z)-3-chloro-N-(2-((6-(3-(2,6-dichloro-3,5-dimethoxyphenyl)-1-methylureido)pyrimidin-4-yl)amino)-5-(4-ethylpiperazin-1-yl)phenyl)acrylamide]	> 9.00	–
C=CC(=O)Nc1ccccc1Nc1cc(N(CCNC(C)C)C(=O)Nc2c(Cl)c(OC)cc(OC)c2Cl)ncn1 [Compound 183]	6.74	–
C=CC(=O)Nc1c(F)cccc1Nc1cc(N(C)C(=O)Nc2c(Cl)c(OC)cc(OC)c2Cl)ncn1 [Compound 185, N-(2-((6-(3-(2,6-dichloro-3,5-dimethoxyphenyl)-1-methylureido)pyrimidin-4-yl)amino)-6-fluorophenyl)acrylamide]	7.89	–
C=CC(=O)Nc1c(Nc2cc(N(C)C(=O)Nc3c(Cl)c(OC)cc(OC)c3Cl)ncn2)cccc1OC [Compound 186]	6.46	–
